Our source for the T/C values is PubChem BioAssay AID256 (DTP/NCI, 2004).

Molecules are shown by their SMILES. Inconclusive results and toxic doses are left out.

The experiment relates to CD2F1 mice, L1210 leukemia ip, survival T/C. Kind of experiment: NCI In Vivo Anticancer Drug Screen. Data for tumor model L1210 Leukemia (intraperitoneal) in CD2F1 (CDF1) mice. The following applies: higher = longer survival. The method in brief: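 Compound-dosed mice with transplantable tumor versus matched vehicle controls; endpoint ratio T/C reported.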
Setting [1] is: endpoint: mean survival time, dose: 100.0 mg/kg/injection, schedule: Q01DX001 (ip), vehicle: saline.
Setting [2] is: endpoint: mean survival time, dose: 200.0 mg/kg/injection, schedule: Q01DX001 (ip), vehicle: saline.
Where [3] appears, read: endpoint: mean survival time, dose: 75.0 mg/kg/injection, schedule: Q01DX001 (ip), vehicle: saline.
Where [4] appears, read: endpoint: mean survival time, dose: 400.0 mg/kg/injection, schedule: Q01DX001 (ip), vehicle: saline.
Setting [5] is: endpoint: mean survival time, dose: 100.0 mg/kg/injection, schedule: Q01DX001 (ip), vehicle: saline with Tween-80.
[6] abbreviates: endpoint: mean survival time, dose: 200.0 mg/kg/injection, schedule: Q01DX001 (ip), vehicle: saline with Tween-80.
The mark [7] stands for this setting: endpoint: mean survival time, dose: 400.0 mg/kg/injection, schedule: Q01DX001 (ip), vehicle: saline with Tween-80.
Setting [8] is: endpoint: mean survival time, dose: 100.0 mg/kg/injection, schedule: Q04DX003 (ip), vehicle: saline with Tween-80.
Setting [9] is: endpoint: mean survival time, dose: 200.0 mg/kg/injection, schedule: Q04DX003 (ip), vehicle: saline with Tween-80.
Where [10] appears, read: endpoint: mean survival time, dose: 400.0 mg/kg/injection, schedule: Q04DX003 (ip), vehicle: saline with Tween-80.
[11] abbreviates: endpoint: mean survival time, dose: 100.0 mg/kg/injection, schedule: Q04DX003 (ip), vehicle: Klucel (hydroxypropylcellulose) (HPC).
The mark [12] stands for this setting: endpoint: mean survival time, dose: 200.0 mg/kg/injection, schedule: Q04DX003 (ip), vehicle: Klucel (hydroxypropylcellulose) (HPC).
Where [13] appears, read: endpoint: mean survival time, dose: 100.0 mg/kg/injection, schedule: Q01DX009 (ip), vehicle: saline.
The mark [14] stands for this setting: endpoint: mean survival time, dose: 200.0 mg/kg/injection, schedule: Q01DX009 (ip), vehicle: saline.
Setting [15] is: endpoint: mean survival time, dose: 400.0 mg/kg/injection, schedule: Q01DX009 (ip), vehicle: saline.
Setting [16] is: endpoint: mean survival time, dose: 100.0 mg/kg/injection, schedule: Q01DX009 (ip), vehicle: saline with Tween-80.
The mark [17] stands for this setting: endpoint: mean survival time, dose: 200.0 mg/kg/injection, schedule: Q01DX009 (ip), vehicle: saline with Tween-80.
Setting [18] is: endpoint: mean survival time, dose: 400.0 mg/kg/injection, schedule: Q01DX009 (ip), vehicle: saline with Tween-80.

For `CCS(=O)(=O)C(CCC#N)(CCC#N)S(=O)(=O)CC`, the T/C runs as follows: under setting [1], 95 % of control; under setting [2], 103 % of control.
For `N#CSCc1ccc(Cl)c(CSC#N)c1`, the T/C is 108 % of control (endpoint: mean survival time, dose: 18.8 mg/kg/injection, schedule: Q01DX009 (ip), vehicle: saline); 103 % of control (endpoint: mean survival time, dose: 18.8 mg/kg/injection, schedule: Q04DX003 (ip), vehicle: saline); 108 % of control (endpoint: mean survival time, dose: 37.5 mg/kg/injection, schedule: Q01DX009 (ip), vehicle: saline); 105 % of control (endpoint: mean survival time, dose: 37.5 mg/kg/injection, schedule: Q04DX003 (ip), vehicle: saline); 96 % of control under setting [3]; 108 % of control (endpoint: mean survival time, dose: 75.0 mg/kg/injection, schedule: Q01DX009 (ip), vehicle: saline). The T/C (endpoint: mean survival time, dose: 75.0 mg/kg/injection, schedule: Q04DX003 (ip), vehicle: saline) was 109 % of control.
As to `O=c1[nH]c(=S)[nH]c(-c2ccccc2)c1Cc1c(O)ccc2ccccc12`, the T/C under setting [1] is 101 % of control, the T/C under setting [2] is 100 % of control and the T/C under setting [4] is 97 % of control.
`C=C1C(=O)OC2/C=C(\C)C3OC3/C=C(/C(=O)OC)C(O)C(OC(=O)C3(C)OC3C)C12` (configuration not stated): the T/C under setting [5] is 104 % of control.
Regarding `CC1CC(O)C(NC(=O)NCCCl)C(O)C1` (configuration not stated), the T/C reads like this: under setting [5], 102 % of control; under setting [6], 102 % of control; under setting [7], 110 % of control.
Turning to `Nc1ncnc2c1ncn2C1OC(CO)C(NC(=O)C(N)Cc2ccccc2)C1O` (configuration not stated), the T/C is, setting by setting: under setting [1], 94 % of control; under setting [2], 92 % of control; under setting [4], 91 % of control.
Consider `O=c1[nH]c2ccc(I)cc2c(=O)o1`, for which the T/C is, setting by setting: under setting [8], 101 % of control; under setting [9], 98 % of control; under setting [10], 104 % of control.
In the case of `CSc1nnc(Sc2ccccc2)c(SC)n1`, the T/C reads like this: under setting [3], 101 % of control; (endpoint: mean survival time, dose: 150.0 mg/kg/injection, schedule: Q01DX001 (ip), vehicle: saline) 98 % of control.
As for `NC(=S)NNC(=O)c1ccccc1`, the T/C runs as follows: under setting [11], 91 % of control; under setting [12], 91 % of control.
Turning to `FC(F)(F)c1cccc(NC2=NCCS2)c1`, the T/C by setting is: (endpoint: mean survival time, dose: 12.5 mg/kg/injection, schedule: Q01DX001 (ip), vehicle: saline with Tween-80) 106 % of control; (endpoint: mean survival time, dose: 25.0 mg/kg/injection, schedule: Q01DX001 (ip), vehicle: saline with Tween-80) 110 % of control; (endpoint: mean survival time, dose: 50.0 mg/kg/injection, schedule: Q01DX001 (ip), vehicle: saline with Tween-80) 101 % of control; under setting [5], 110 % of control; under setting [6], 106 % of control; under setting [7], 105 % of control.
`CC(=O)OC1C(O)C(O)C(OC(C)=O)C(OC(C)=O)C1OC(C)=O` (configuration not stated): the T/C under setting [13] is 102 % of control, the T/C under setting [14] was 102 % of control and the T/C under setting [15] was 98 % of control.
As for `CC(=O)OC1CCC2(C)C(C1)C(=O)OC1C2CCC2(C)C(C(C)CCCC(C)C)CCC12` (configuration not stated), the T/C was 94 % of control under setting [8], 94 % of control under setting [9] and 94 % of control under setting [10].
`CCOC(CNC(=O)NC1CCCCC1)OCC`: the T/C is, setting by setting: under setting [16], 113 % of control; under setting [8], 103 % of control; under setting [17], 104 % of control; under setting [9], 104 % of control; under setting [18], 108 % of control; under setting [10], 93 % of control.
In the case of `CC(C)(C)SC1C(O)C(CO)OC1n1ccc(Nc2ccccc2)nc1=O` (configuration not stated), the T/C is 99 % of control (endpoint: median survival time, dose: 12.5 mg/kg/injection, schedule: Q01DX005 (ip), vehicle: saline with Tween-80); 99 % of control (endpoint: median survival time, dose: 25.0 mg/kg/injection, schedule: Q01DX005 (ip), vehicle: saline with Tween-80); 102 % of control (endpoint: median survival time, dose: 50.0 mg/kg/injection, schedule: Q01DX005 (ip), vehicle: saline with Tween-80); 104 % of control (endpoint: median survival time, dose: 100.0 mg/kg/injection, schedule: Q01DX005 (ip), vehicle: saline with Tween-80); 90 % of control (endpoint: median survival time, dose: 200.0 mg/kg/injection, schedule: Q01DX005 (ip), vehicle: saline with Tween-80).
As for `CN(C)CC(=O)N/N=C\c1ccc([N+](=O)[O-])s1`, the T/C is, setting by setting: (endpoint: mean survival time, dose: 50.0 mg/kg/injection, schedule: Q01DX009 (ip), vehicle: saline) 91 % of control; under setting [13], 93 % of control.
With `CC1(CO)CCCC2(C)C3=C(CCCC3)CCC12` (configuration not stated), the T/C runs as follows: (endpoint: mean survival time, dose: 50.0 mg/kg/injection, schedule: Q04DX003 (ip), vehicle: saline with Tween-80) 97 % of control; under setting [8], 101 % of control; under setting [9], 97 % of control.
Consider `O=C(N/N=C/c1ccccc1O)c1ccccc1O`, for which the T/C is 93 % of control under setting [16], 95 % of control under setting [17] and 93 % of control under setting [18].
For the compound `Cc1ccc(CCCC(=O)O)c(C)c1`, the T/C by setting is: under setting [8], 104 % of control; under setting [9], 93 % of control; under setting [10], 98 % of control.
Turning to `CN(C(=O)Nc1ccc([N+](=O)[O-])cc1)c1ccccc1`, the T/C under setting [1] was 96 % of control, the T/C under setting [2] is 98 % of control and the T/C under setting [4] was 102 % of control.
Take `Cc1cc(N(CCCl)CCCl)ccc1C=Nc1cccnc1`: the T/C reads like this: (endpoint: mean survival time, dose: 50.0 mg/kg/injection, schedule: Q01DX009 (ip), vehicle: Klucel (hydroxypropylcellulose) (HPC)) 101 % of control; (endpoint: mean survival time, dose: 100.0 mg/kg/injection, schedule: Q01DX009 (ip), vehicle: Klucel (hydroxypropylcellulose) (HPC)) 106 % of control; (endpoint: mean survival time, dose: 200.0 mg/kg/injection, schedule: Q01DX009 (ip), vehicle: Klucel (hydroxypropylcellulose) (HPC)) 110 % of control; (endpoint: mean survival time, dose: 400.0 mg/kg/injection, schedule: Q01DX009 (ip), vehicle: Klucel (hydroxypropylcellulose) (HPC)) 112 % of control.
Take `O=[N+]([O-])c1ccc2c(c1)-c1ccccc1/C2=N\O`: the T/C is 98 % of control (endpoint: mean survival time, dose: 50.0 mg/kg/injection, schedule: Q01DX001 (ip), vehicle: carboxymethylcellulose (CMC)); 104 % of control (endpoint: mean survival time, dose: 100.0 mg/kg/injection, schedule: Q01DX001 (ip), vehicle: carboxymethylcellulose (CMC)); 111 % of control (endpoint: mean survival time, dose: 200.0 mg/kg/injection, schedule: Q01DX001 (ip), vehicle: carboxymethylcellulose (CMC)); 104 % of control (endpoint: mean survival time, dose: 400.0 mg/kg/injection, schedule: Q01DX001 (ip), vehicle: carboxymethylcellulose (CMC)).
Take `N#CC1c2ccccc2C=CN1C(=O)OCC(Cl)(Cl)Cl` (configuration not stated): the T/C is, setting by setting: under setting [11], 102 % of control; under setting [12], 102 % of control; (endpoint: mean survival time, dose: 400.0 mg/kg/injection, schedule: Q04DX003 (ip), vehicle: Klucel (hydroxypropylcellulose) (HPC)) 103 % of control.
With `CCOCCNc1ccc(S(=O)(=O)c2ccc(N)cc2)cc1N`, the T/C is, setting by setting: under setting [13], 103 % of control; under setting [14], 92 % of control; under setting [15], 92 % of control.
As to `O=C(Nc1ccc(NC(=O)c2ccccc2)c(Sc2ccccc2)c1Sc1ccccc1)c1ccccc1`, the T/C by setting is: under setting [5], 89 % of control; under setting [6], 89 % of control; under setting [7], 86 % of control.
Take `NC(=O)c1[nH]cnc1/N=N/N(CCF)CCF`: the T/C (endpoint: mean survival time, dose: 8.8 mg/kg/injection, schedule: Q01DX001 (ip), vehicle: other) is 121 % of control and the T/C (endpoint: mean survival time, dose: 30.0 mg/kg/injection, schedule: Q01DX001 (ip), vehicle: other) was 158 % of control.
